Several values for one entry are separate records, joined by “and”; a condition that tells them apart may be missing. Equal entries are not always repeated.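 Where inhibition never reached the appropriate level, the endpoint shown equals the highest concentration tested. Otherwise, values were interpolated linearly from a five-concentration, 48-hour dose response in 96-well plates. Here, GI50 denotes the concentration required for 50% inhibition of growth. The concentration for full growth arrest is given as TGI.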
Assays:
Test in all cases: NCI anticancer screen, dose series, 48 h
[1] = test system: A549 NSCLC
[2] = test system: HCT-116 colon
[3] = test system: MALME-3M melanoma
[4] = test system: MDA-MB-435
[5] = test system: OVCAR-3 ovarian
[6] = test system: OVCAR-8 ovarian
[7] = test system: RXF 393 renal
[8] = test system: SK-MEL-5 melanoma
[9] = test system: UACC-257 melanoma
[10] = test system: UO-31 renal

| SMILES | GI50 [1] | TGI [1] | GI50 [2] | TGI [2] | GI50 [3] | TGI [3] | GI50 [4] | TGI [4] | GI50 [5] | TGI [5] | GI50 [6] | TGI [6] | GI50 [7] | TGI [7] | GI50 [8] | TGI [8] | GI50 [9] | TGI [9] | GI50 [10] | TGI [10] |
| --- | --- | --- | --- | --- | --- | --- | --- | --- | --- | --- | --- | --- | --- | --- | --- | --- | --- | --- | --- | --- |
| NC(=N\N=C/c1ccc(O)cc1)/C(N)=N\N=C/c1ccc(O)cc1 | > 25.5 µM | > 100 µM | > 100 µM | > 100 µM | > 100 µM | > 100 µM | 4.88 µM | > 100 µM | > 100 µM | > 100 µM | 51.4 µM | > 100 µM | 84.7 µM | > 100 µM | 3.06 µM | 73.1 µM | > 100 µM | > 100 µM | 1.21 µM | > 100 µM |
| O=C(O)C(Cc1cnc[nH]1)N1C(=O)c2ccccc2C1=O (stereo not given) |  | > 100 µM |  | > 100 µM |  | > 100 µM |  | > 100 µM |  | > 100 µM |  | > 100 µM |  | > 100 µM |  | > 100 µM |  | > 100 µM |  | > 100 µM |
| Cc1ccc(/C=C/c2c(C(=O)/C=C/c3ccccc3)c(C)nc3ccccc23)cc1 | 2.04 µM | 5.6 µM | 0.762 µM | 2.2 µM | 1.74 µM | 3.18 µM | 2.1 µM | 5.59 µM | 1.51 µM | 2.88 µM | 1.83 µM | 5.46 µM | 1.53 µM | 2.88 µM | 1.71 µM | 3.11 µM | 1.86 µM | 4.02 µM | 1.26 µM | 2.52 µM |
| O=C1NC(N/N=C\C(O)C(O)C(O)C(O)CO)=N/C1=C/c1ccccc1 (stereo not given) | > 100 µM and 19 µM | > 100 µM and 45.7 µM | 52.2 µM and 16.4 µM and > 100 µM | > 100 µM and 33.8 µM | > 100 µM and 19.3 µM | > 100 µM and 37.6 µM | 85.7 µM and 15.7 µM and > 100 µM | > 100 µM and 34.9 µM | 97.1 µM and 20.5 µM and > 100 µM | > 100 µM and 37.7 µM | > 100 µM and 22.8 µM | > 100 µM and 52.5 µM | > 100 µM and 21.7 µM | > 100 µM and 44 µM | 44.5 µM and 14.8 µM and > 100 µM | > 100 µM and 29.2 µM | > 100 µM and 19.9 µM | > 100 µM and 45 µM | > 100 µM and 17.3 µM | > 100 µM and 32.2 µM |
| COc1cc2c3c(n(CCCN)c(=O)c2cc1OC)-c1ccc([N+](=O)[O-])cc1C3=O | 9.88 µM | 34.7 µM | 1.32 µM | 2.74 µM | 16.7 µM | 40.5 µM | 15.9 µM | 37.5 µM | 16.5 µM | 37.5 µM | 2 µM | 5.41 µM | 19.2 µM | 43.7 µM | 5.23 µM | 19.5 µM | 31 µM | > 100 µM | 0.222 µM | 6.22 µM |
| Nc1ccn(C2CC(F)C(CO)O2)c(=O)n1 (stereo not given) | > 100 µM | > 100 µM | > 100 µM | > 100 µM | > 100 µM | > 100 µM | > 100 µM | > 100 µM | > 100 µM | > 100 µM | > 100 µM | > 100 µM | > 100 µM | > 100 µM | > 100 µM | > 100 µM | > 100 µM | > 100 µM | > 100 µM | > 100 µM |
| COc1ccc(-c2c(C)c(C(=O)O)nc(-c3ccc4c(O)c(OC)c5c(c4n3)=NC(C)(C)N=5)c2N)c(O)c1OC |  | 55.5 µM |  | 52.1 µM |  | 17.7 µM |  | 30.7 µM |  | 43.2 µM |  | 21.5 µM |  | 51.7 µM |  | 25.4 µM |  | 98.4 µM |  | 27.5 µM |

— PubChem BioAssay (NCI)
